Reference: patent US20230055705A1, “SUBSTITUTED THIOPHENE CARBOXAMIDES AND DERIVATIVES THEREOF” (Bayer Aktiengesellschaft, priority 2019, published 2023)

System: salicylate responsive promoter sequence of the PR1 (pathogenesis-related protein I) gene (AT2G14610)
Test: Induction of defense gene expression in Arabidopsis thaliana (PR1 promoter-GFP reporter plants)
Assay type: in vivo
Settings: 300 ppm; 3rd day after spraying; mock treated leaves set as 1.00
Protocol: Arabidopsis thaliana reporter plants containing the coding sequence of a green fluorescent protein (GFP) linked to the salicylate responsive promoter sequence of the PR1 (pathogenesis-related protein I) gene (AT2G14610) were grown for five days and then sprayed with compounds. On the 3rd day after spraying, plant fluorescence was assessed with a MacroFluo instrument from Leica Microsystems (Wetzlar, Germany). Fluorescences were quantified with the Meta-Morph Microscopy Automation & Image Analysis Software (Molecular Devices, Sunnyvale, Calif., United States). Background fluorescence in mock treated leaves was set as 1.00.

SMILES	relative fluorescence value
O=C(O)c1ccccc1O [Salicylic acid, reference compound]	2.70

Same assay, conditions: Arabidopsis thaliana, 72 h; 75 ppm of compound; 3rd day after spraying; mock treated leaves set as 1.00; read-out: relative fluorescence value

SMILES	fold induction at 75 ppm
CCSC(=O)[C@H](C)NC(=O)c1sc(Cl)c(Cl)c1Cl [I.089]	> 2
NC(=S)CNC(=O)c1sc(Cl)c(Cl)c1Cl [I.104, N-(2-amino-2-sulfanylideneethyl)-3,4,5-trichlorothiophene-2-carboxamide]	> 2
COC(=O)[C@H](C)NC(=S)c1sc(Cl)c(Cl)c1Cl [I.117]	> 2
CCNC(=O)[C@H](C)NC(=O)c1sc(Cl)c(Cl)c1Cl [I.120]	> 2

Same assay, conditions: Arabidopsis thaliana, 72 h; 300 ppm; 3rd day after spraying; mock treated leaves set as 1.00; read-out: relative fluorescence value

SMILES	fold induction at 300 ppm
CCSC(=O)[C@H](C)NC(=O)c1sc(Cl)c(Cl)c1Cl [I.089]	> 2
CNC(=O)[C@H](C)NC(=O)c1sc(Cl)c(Cl)c1Cl [I.091]	> 2
CCSC(=O)[C@@H](NC(=O)c1sc(Cl)c(Cl)c1Cl)C(C)C [I.094]	> 2
NC(=S)CNC(=O)c1sc(Cl)c(Cl)c1Cl [I.104, N-(2-amino-2-sulfanylideneethyl)-3,4,5-trichlorothiophene-2-carboxamide]	> 2
COC(=O)[C@H](C)NC(=S)c1sc(Cl)c(Cl)c1Cl [I.117]	> 2
CCNC(=O)[C@H](C)NC(=O)c1sc(Cl)c(Cl)c1Cl [I.120]	> 2

System: Colletotrichum lindemuthianum
Test: In vivo preventive test on Colletotrichum lindemuthianum (Antrachnose on bean)
Settings: 144 h, 31 ppm of active ingredient, inoculation 72 h after spraying, evaluated 6 days after inoculation, read-out: efficacy
Protocol: (§1) The tested active ingredients were prepared by homogenization in a mixture of acetone/Dimethyl sulfoxide/Tween®, and then diluted with water to obtain the desired active material concentration. The young plants of bean were treated by spraying the active ingredient prepared as described above. Control plants were treated only with an aqueous solution of acetone/Dimethyl sulfoxide/Tween®.
(§2) After 72 hours, the plants were contaminated by spraying the leaves with an aqueous suspension of Colletotrichum lindemuthianum spores. The contaminated bean plants were incubated for 24 hours at 20° C. and at 100% relative humidity and then for 5 days at 20° C. and at 90% relative humidity. The test was evaluated 6 days after the inoculation. 0% means an efficacy which corresponds to that of the control plants while an efficacy of 100% means that no disease was observed.
Compound CMP1 was tested in an in vivo preventive test on Colletotrichum lindemuthianum (Antrachnose on bean) in the same conditions as described in Example F.

SMILES	pest or weed control at 31 ppm [%]
COC(=O)[C@H](C)NC(=S)c1sc(Cl)c(Cl)c1Cl [I.117]	70 to 79
CCNC(=O)[C@H](C)NC(=O)c1sc(Cl)c(Cl)c1Cl [I.120]	70 to 79

Same assay, conditions: 144 h, 500 ppm of active ingredient, inoculation 72 h after spraying, evaluated 6 days after inoculation, read-out: efficacy

SMILES	pest or weed control at 500 ppm [%]
CCSC(=O)[C@H](C)NC(=O)c1sc(Cl)c(Cl)c1Cl [I.089]	90 to 100
CNC(=O)[C@H](C)NC(=O)c1sc(Cl)c(Cl)c1Cl [I.091]	70 to 79
NC(=S)CNC(=O)c1sc(Cl)c(Cl)c1Cl [I.104, N-(2-amino-2-sulfanylideneethyl)-3,4,5-trichlorothiophene-2-carboxamide]	80 to 89
COC(=O)[C@H](C)NC(=S)c1sc(Cl)c(Cl)c1Cl [I.117]	90 to 100
CCNC(=O)[C@H](C)NC(=O)c1sc(Cl)c(Cl)c1Cl [I.120]	90 to 100

System: Peronospora parasitica
Test: In vivo preventive test on Peronospora parasitica (Crucifer downy mildew)
Settings: Hyaloperonospora parasitica, in Brassica oleracea, 120 h, 31 ppm of active ingredient, cabbage, evaluated 5 days after inoculation, read-out: efficacy
Protocol: as §1, with “cabbage” for “bean”
After 72 hours, the plants were contaminated by spraying the leaves with an aqueous suspension of Peronospora parasitica spores. The contaminated cabbage plants were incubated for 5 days at 20° C. and at 100% relative humidity.
The test was evaluated 5 days after the inoculation. 0% means an efficacy which corresponds to that of the control plants while an efficacy of 100% means that no disease was observed.
Compounds CMP2 and CMP3 were tested in an in vivo preventive test on Peronospora parasitica (Crucifer downy mildew) in the same conditions as described in Example G.

SMILES	pest or weed control at 31 ppm [%]
CCSC(=O)[C@H](C)NC(=O)c1sc(Cl)c(Cl)c1Cl [I.089]	90 to 100
CNC(=O)[C@H](C)NC(=O)c1sc(Cl)c(Cl)c1Cl [I.091]	90 to 100
NC(=S)CNC(=O)c1sc(Cl)c(Cl)c1Cl [I.104, N-(2-amino-2-sulfanylideneethyl)-3,4,5-trichlorothiophene-2-carboxamide]	90 to 100
COC(=O)[C@H](C)NC(=S)c1sc(Cl)c(Cl)c1Cl [I.117]	90 to 100
CCNC(=O)[C@H](C)NC(=O)c1sc(Cl)c(Cl)c1Cl [I.120]	90 to 100

Same assay, conditions: Hyaloperonospora parasitica, in Brassica oleracea, 120 h, 125 ppm of active ingredient, cabbage, evaluated 5 days after inoculation, read-out: efficacy

SMILES	pest or weed control at 125 ppm [%]
CCSC(=O)[C@H](C)NC(=O)c1sc(Cl)c(Cl)c1Cl [I.089]	90 to 100
CNC(=O)[C@H](C)NC(=O)c1sc(Cl)c(Cl)c1Cl [I.091]	90 to 100
NC(=S)CNC(=O)c1sc(Cl)c(Cl)c1Cl [I.104, N-(2-amino-2-sulfanylideneethyl)-3,4,5-trichlorothiophene-2-carboxamide]	90 to 100
COC(=O)[C@H](C)NC(=S)c1sc(Cl)c(Cl)c1Cl [I.117]	90 to 100
CCNC(=O)[C@H](C)NC(=O)c1sc(Cl)c(Cl)c1Cl [I.120]	90 to 100

Same assay, conditions: Hyaloperonospora parasitica, in Brassica oleracea, 120 h, 500 ppm of active ingredient, cabbage, evaluated 5 days after inoculation, read-out: efficacy

SMILES	pest or weed control at 500 ppm [%]
CCSC(=O)[C@H](C)NC(=O)c1sc(Cl)c(Cl)c1Cl [I.089]	90 to 100
CNC(=O)[C@H](C)NC(=O)c1sc(Cl)c(Cl)c1Cl [I.091]	90 to 100
CCSC(=O)[C@@H](NC(=O)c1sc(Cl)c(Cl)c1Cl)C(C)C [I.094]	90 to 100
NC(=S)CNC(=O)c1sc(Cl)c(Cl)c1Cl [I.104, N-(2-amino-2-sulfanylideneethyl)-3,4,5-trichlorothiophene-2-carboxamide]	90 to 100
COC(=O)[C@H](C)NC(=S)c1sc(Cl)c(Cl)c1Cl [I.117]	90 to 100
CCNC(=O)[C@H](C)NC(=O)c1sc(Cl)c(Cl)c1Cl [I.120]	90 to 100

System: Xanthomonas campestris pv. campestris
Test: In vivo preventive test on Xanthomonas campestris pv. campestris (black rot on cabbage)
Settings: 31 ppm of active ingredient, evaluated 8 or 10 days after inoculation, read-out: efficacy
Protocol: The tested active ingredients were prepared by homogenization in a mixture of acetone/Dimethyl sulfoxide/Tween®, and then diluted with water to obtain the desired active material concentration.
The young plants of cabbage were treated by spraying the active ingredient prepared as described above. Control plants were treated only with an aqueous solution of acetone/Dimethyl sulfoxide/Tween®.
After 72 hours, the plants were contaminated by spraying the leaves with an aqueous bacteria suspension of Xanthomonas campestris pv. campestris. The contaminated cabbage plants were incubated for 8 or 10 days at 27° C. at 95% relative humidity.
The test was evaluated 8 or 10 days after the inoculation. 0% means an efficacy which corresponds to that of the control plants while an efficacy of 100% means that no disease was observed. […]
Compounds CMP1, CMP2, CMP3 and CMP4 were tested in an in vivo preventive test on Xanthomonas campestris pv. campestris (black rot on cabbage) in the same conditions as described in Example H.

SMILES	pest or weed control at 31 ppm [%]
CCNC(=O)[C@H](C)NC(=O)c1sc(Cl)c(Cl)c1Cl [I.120]	80 to 89

System: Uromyces appendiculatus
Test: In vivo preventive test on Uromyces appendiculatus (bean rust)
Settings: 240 h, 125 ppm of active ingredient, evaluated 10 days after inoculation, read-out: efficacy
Protocol: as §1
as §2, with “Uromyces appendiculatus” for “Colletotrichum lindemuthianum”, “9” for “5”, “70-80%” for “90%”, “10” for “6”
Compounds CMP5 and CMP6 were tested in an in vivo preventive test on Uromyces appendiculatus (bean rust) in the same conditions as described in Example I.

SMILES	pest or weed control at 125 ppm [%]
CCSC(=O)[C@H](C)NC(=O)c1sc(Cl)c(Cl)c1Cl [I.089]	90 to 100
CNC(=O)[C@H](C)NC(=O)c1sc(Cl)c(Cl)c1Cl [I.091]	80 to 89
NC(=S)CNC(=O)c1sc(Cl)c(Cl)c1Cl [I.104, N-(2-amino-2-sulfanylideneethyl)-3,4,5-trichlorothiophene-2-carboxamide]	70 to 79
COC(=O)[C@H](C)NC(=S)c1sc(Cl)c(Cl)c1Cl [I.117]	90 to 100
CCNC(=O)[C@H](C)NC(=O)c1sc(Cl)c(Cl)c1Cl [I.120]	90 to 100

Same assay, conditions: 240 h, 500 ppm of active ingredient, evaluated 10 days after inoculation, read-out: efficacy

SMILES	pest or weed control at 500 ppm [%]
CCSC(=O)[C@H](C)NC(=O)c1sc(Cl)c(Cl)c1Cl [I.089]	90 to 100
CNC(=O)[C@H](C)NC(=O)c1sc(Cl)c(Cl)c1Cl [I.091]	70 to 79
CCSC(=O)[C@@H](NC(=O)c1sc(Cl)c(Cl)c1Cl)C(C)C [I.094]	90 to 100
NC(=S)CNC(=O)c1sc(Cl)c(Cl)c1Cl [I.104, N-(2-amino-2-sulfanylideneethyl)-3,4,5-trichlorothiophene-2-carboxamide]	90 to 100
COC(=O)[C@H](C)NC(=S)c1sc(Cl)c(Cl)c1Cl [I.117]	90 to 100
CCNC(=O)[C@H](C)NC(=O)c1sc(Cl)c(Cl)c1Cl [I.120]	90 to 100

System: Pseudomonas syringae pv. tomato
Test: In vivo preventive test on Pseudomonas syringae pv. tomato (bacterial speck on tomato)
Settings: 31 ppm of active ingredient, evaluated 5 or 6 days after inoculation, read-out: efficacy
Protocol: as §1, with “tomato” for “bean”
After 72 hours, the plants were contaminated by spraying the leaves with an aqueous bacteria suspension of Pseudomonas syringae pv. tomato. The contaminated tomato plants were incubated for 4 days in saturated atmosphere at 22° C. day/20° C. night—70% HR and then for 1 or 2 days at 22° C. day/20° C. night at 70-80% relative humidity.
The test was evaluated 5 or 6 days after the inoculation. 0% means an efficacy which corresponds to that of the control plants while an efficacy of 100% means that no disease was observed.
Compounds CMP1 and CMP4 were tested in an in vivo preventive test on Pseudomonas syringae pv. tomato (bacterial speck on tomato) in the same conditions as described in Example J.

SMILES	pest or weed control at 31 ppm [%]
CCSC(=O)[C@H](C)NC(=O)c1sc(Cl)c(Cl)c1Cl [I.089]	90 to 100
NC(=S)CNC(=O)c1sc(Cl)c(Cl)c1Cl [I.104, N-(2-amino-2-sulfanylideneethyl)-3,4,5-trichlorothiophene-2-carboxamide]	70 to 79
COC(=O)[C@H](C)NC(=S)c1sc(Cl)c(Cl)c1Cl [I.117]	80 to 89

Same assay, conditions: 500 ppm of active ingredient, evaluated 5 or 6 days after inoculation, read-out: efficacy

SMILES	pest or weed control at 500 ppm [%]
CCSC(=O)[C@H](C)NC(=O)c1sc(Cl)c(Cl)c1Cl [I.089]	90 to 100
CCSC(=O)[C@@H](NC(=O)c1sc(Cl)c(Cl)c1Cl)C(C)C [I.094]	80 to 89
NC(=S)CNC(=O)c1sc(Cl)c(Cl)c1Cl [I.104, N-(2-amino-2-sulfanylideneethyl)-3,4,5-trichlorothiophene-2-carboxamide]	80 to 89
COC(=O)[C@H](C)NC(=S)c1sc(Cl)c(Cl)c1Cl [I.117]	80 to 89

System: not listed separately
Test: LogP by HPLC on reversed phase columns (EEC directive 79/831 Annex V.A8)
Assay type: physicochemical
Settings: reversed phase HPLC columns, given in the preparation examples; method not marked
Protocol: In the above tables, measurement of LogP values was performed according to EEC directive 79/831 Annex V.A8 by HPLC (High Performance Liquid Chromatography) on reversed phase columns with the following methods: • ^[a]
Calibration was done with straight-chain alkan2-ones (with 3 to 16 carbon atoms) with known LogP values (measurement of LogP values using retention times with linear interpolation between successive alkanones). Lambda-max-values were determined using UV-spectra from 200 nm to 400 nm and the peak values of the chromatographic signals.

SMILES	chromatographic logP
NC(=S)CNC(=O)c1sc(Cl)c(Cl)c1Cl [I.104, N-(2-amino-2-sulfanylideneethyl)-3,4,5-trichlorothiophene-2-carboxamide]	2.53

Same assay, conditions: reversed phase HPLC columns, method [a]: LC-UV, in an acidic range, with 0.1% formic acid in water and acetonitrile as eluent (linear gradient from 10% to 95% acetonitrile)

SMILES	chromatographic logP
CCSC(=O)[C@H](C)NC(=O)c1sc(Cl)c(Cl)c1Cl [I.089]	4.4
CNC(=O)[C@H](C)NC(=O)c1sc(Cl)c(Cl)c1Cl [I.091]	2.35

Next, values leading:

chromatographic logP	SMILES
2.53	NC(=S)CNC(=O)c1sc(Cl)c(Cl)c1Cl [I.104, N-(2-amino-2-sulfanylideneethyl)-3,4,5-trichlorothiophene-2-carboxamide]
4.62	COC(=O)[C@H](C)NC(=S)c1sc(Cl)c(Cl)c1Cl [I.117]
2.75	CCNC(=O)[C@H](C)NC(=O)c1sc(Cl)c(Cl)c1Cl [I.120]
